Values of other authors as cited in patent US20100069356A1, “DIBENZO[…] DOPAMINE, ALPHA […], AND SEROTONIN RECEPTORS” (AUSPEX PHARMACEUTICALS, INC., priority 2008, published 2010).

Details: in vivo

SMILES: OCCOCCN1CCN(C2=Nc3ccccc3Sc3ccccc32)CC1 [Quetiapine, 2-(2-(4-dibenzo[b,f][1,4]thiazepine-11-yl-1-piperazinyl)ethoxy)ethanol]
- half-life: ~6 h
